According to patent US10344019B2 (priority 2010, dated 2019):
Like-named read-outs stand apart in the source and are kept apart here.

Key:
Format in all cases: cell-based
[1] = system: Q30R in genotype 1a NS5A, 1a Rluc replicon transfected into Huh-7 cured-51 cells; assay: HCV replicon assay, resistance mutant 1a Q30R; conditions: Hepatitis C virus, Huh-7, read-out: 1a Q30R
Summary of the method: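 Q30R introduced into genotype 1a H77 RLuc replicon by site-directed mutagenesis; replicon RNA transfected into Huh-7 cured-51 cells.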

[2] = system: HCV 2a Rluc cells (NS5A chimeric genotype 2a JFH-1 replicon with genotype 2a J6 strain NS5A gene, M31 present); assay: HCV replicon reporter assay, genotype 2a J6 (M31 present); conditions: Hepatitis C virus, read-out: 2a J6
Summary of the method: (§1)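 Renilla luciferase HCV replicon cells: dicistronic 1b Con1, 1a H77 or 2a JFH-1 replicons, or a JFH-1 chimera carrying J6 NS5A (M31 present). Compound in DMSO serial dilutions, 72 h incubation, then lysis and luciferase read. EC50 by non-linear regression.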

[3] = system: HCV 4a Rluc cells (NS5A chimeric genotype 1b Con1 replicon with genotype 4a NS5A gene); assay: microbe, parasite or virus in culture; conditions: Hepatitis C virus, read-out: 4a
Summary of the method: (§2)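 Replicon cells stably carrying the listed RLuc-encoding dicistronic replicons were seeded and treated with DMSO serial dilutions of compound (10 mM stocks) diluted into culture medium. After 72 h, cells were lysed and Renilla luciferase activity measured. EC50 was derived by non-linear regression.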

[4] = system: HCV 3a RLuc cells (NS5A chimeric genotype 1b Con1 replicon with consensus genotype 3a NS5A gene); assay: microbe, parasite or virus in culture; conditions: Hepatitis C virus
Summary of the method: as §2

[5] = system: HCV 2a JFH-1 Rluc cells (dicistronic genotype 2a JFH-1 replicon, RLuc reporter); assay: microbe, parasite or virus in culture; conditions: Hepatitis C virus, read-out: 2a JFH
Summary of the method: as §1

[6] = system: HCV 1a RLuc cells (dicistronic genotype 1a H77 replicon, RLuc reporter); assay: microbe, parasite or virus in culture; conditions: Hepatitis C virus, read-out: 1a
Summary of the method: as §1

[7] = system: HCV 2b Rluc cells (NS5A chimeric genotype 2a JFH-1 replicon with genotype 2b MD2b-1 NS5A gene, M31 present); assay: microbe, parasite or virus in culture; conditions: Hepatitis C virus, read-out: 2b
Summary of the method: as §2

[8] = system: HCV 1b RLuc cells (dicistronic genotype 1b Con1 replicon, RLuc reporter); assay: microbe, parasite or virus in culture; conditions: Hepatitis C virus, read-out: 1b (nM)
Summary of the method: as §1

[9] = read-out: 3a, genotype 3a NS5A chimeric replicon
[10] = genotype 2a JFH-1 RLuc replicon

COC[C@H]1C[C@@H](c2nc3ccc4cc5c(cc4c3[nH]2)OCc2cc(-c3cnc([C@@H]4CC[C@H](C)N4C(=O)[C@@H](NC(=O)OC)C(C)C)[nH]3)ccc2-5)N(C(=O)[C@@H](NC(=O)OC)C(C)C)C1 [Example 561]
EC50 [1]: 0.001 to 0.999 nM
EC50 [2]: 0.001 to 0.999 nM
EC50 [3]: 0.001 to 0.99 nM
EC50 [4, 9]: 0.001 to 0.99 nM
EC50 [5, 10]: 0.001 to 0.999 nM
EC50 ([6]; genotype 1a H77 RLuc replicon): 0.001 to 0.999 nM
EC50 [7]: 0.001 to 0.999 nM
EC50 [8]: 0.01 nM

COC(=O)N[C@H](C(=O)N1[C@@H]2C[C@@H]2C[C@H]1c1ncc(-c2cc3c4c(c2)OCc2cc(-c5cnc([C@@H]6C[C@H]7C[C@H]7N6C(=O)[C@@H](NC(=O)OC)C(C)C)[nH]5)cc(c2-4)OC3)[nH]1)C(C)C [Example 414]
EC50 [1]: 1 to 44 nM
EC50 [2]: 1 to 44 nM
EC50 [3]: 0.001 to 0.99 nM
EC50 ([4]; read-out: 3a, genotype 3a replicon): 0.001 to 0.99 nM
EC50 ([5]; genotype 2a JFH-1 replicon): 0.001 to 0.999 nM
EC50 ([6]; genotype 1a replicon): 0.001 to 0.999 nM
EC50 [7]: 1 to 44 nM
EC50 [8]: 0.022 nM

COC[C@H]1C[C@@H](c2ncc(-c3ccc(-c4ccc(-c5cnc([C@@H]6C[C@H]7C[C@H]7N6C(=O)[C@@H](NC(=O)OC)C(C)C)[nH]5)cc4)cc3)[nH]2)N(C(=O)[C@H](NC(=O)C2CC2)c2ccccc2)C1 [Example 527]
EC50 [1]: 0.001 to 0.999 nM
EC50 [2]: 0.001 to 0.999 nM
EC50 [3]: 0.001 to 0.99 nM
EC50 [4, 9]: 0.001 to 0.99 nM
EC50 [5, 10]: 0.001 to 0.999 nM
EC50 ([6]; genotype 1a H77 RLuc replicon): 0.001 to 0.999 nM
EC50 [7]: 0.001 to 0.999 nM
EC50 [8]: 0.022 nM

COC[C@H]1C[C@@H](c2nc3ccc4cc5c(cc4c3[nH]2)OCc2cc(-c3cnc([C@@H]4CCCN4C(=O)[C@@H](NC(=O)OC)C(C)C)[nH]3)ccc2-5)N(C(=O)[C@H](N)c2ccccc2)C1 [Example 571]
EC50 [1]: 0.001 to 0.999 nM
EC50 [2]: 0.001 to 0.999 nM
EC50 [3]: 0.001 to 0.99 nM
EC50 [4, 9]: 0.001 to 0.99 nM
EC50 [5, 10]: 0.001 to 0.999 nM
EC50 ([6]; genotype 1a H77 RLuc replicon): 0.001 to 0.999 nM
EC50 [7]: 0.001 to 0.999 nM
EC50 [8]: 0.114 nM

COC[C@H]1C[C@@H](c2nc3ccc4cc(-c5ccc6c(ccc7nc([C@@H]8C[C@H](SC)CN8C(=O)[C@@H](NC(=O)OC)C(C)C)[nH]c76)c5)ccc4c3[nH]2)N(C(=O)[C@H](NC(=O)OC)c2ccccc2)C1 [Example 546]
EC50 [1]: 0.001 to 0.999 nM
EC50 [2]: 0.001 to 0.999 nM
EC50 [3]: 0.001 to 0.99 nM
EC50 [4, 9]: 0.001 to 0.99 nM
EC50 [5, 10]: 0.001 to 0.999 nM
EC50 ([6]; genotype 1a H77 RLuc replicon): 0.001 to 0.999 nM
EC50 [7]: 0.001 to 0.999 nM
EC50 [8]: 0.048 nM

COC[C@H]1C[C@@H](c2nc3ccc4cc5c(cc4c3[nH]2)OCc2cc(-c3cnc([C@@H]4CCCN4C(=O)[C@H](NC(=O)OC)c4ccccc4)[nH]3)ccc2-5)N(C(=O)[C@@H](NC(=O)OC)C(C)C)C1 [Example 544]
EC50 [1]: 0.001 to 0.999 nM
EC50 [2]: 0.001 to 0.999 nM
EC50 [3]: 0.001 to 0.99 nM
EC50 [4, 9]: 0.001 to 0.99 nM
EC50 [5, 10]: 0.001 to 0.999 nM
EC50 ([6]; genotype 1a H77 RLuc replicon): 0.001 to 0.999 nM
EC50 [7]: 0.001 to 0.999 nM
EC50 [8]: 0.026 nM

COC(=O)N[C@H](C(=O)N1CCC[C@H]1c1ncc(-c2ccc3c(c2)COc2cc4c(ccc5nc([C@@H]6CCCN6C(=O)[C@H](NC(=O)OC)c6ccccc6)[nH]c54)cc2-3)[nH]1)[C@@H](C)OC [Example 588]
EC50 [1]: 0.001 to 0.999 nM
EC50 [2]: 0.001 to 0.999 nM
EC50 [3]: 0.001 to 0.99 nM
EC50 [4, 9]: 0.001 to 0.99 nM
EC50 [5, 10]: 0.001 to 0.999 nM
EC50 ([6]; genotype 1a H77 RLuc replicon): 0.001 to 0.999 nM
EC50 [7]: 0.001 to 0.999 nM

COC(=O)N[C@H](C(=O)N1[C@@H](C)CC[C@H]1c1ncc(-c2ccc3c(c2)COc2cc4c(ccc5nc([C@@H]6CC[C@H](C)N6C(=O)[C@@H](NC(=O)OC)[C@@H](C)OC)[nH]c54)cc2-3)[nH]1)[C@@H](C)OC [Example 592]
EC50 [1]: 0.001 to 0.999 nM
EC50 [2]: 0.001 to 0.999 nM
EC50 [3]: 0.001 to 0.99 nM
EC50 [4, 9]: 0.001 to 0.99 nM
EC50 [5, 10]: 0.001 to 0.999 nM
EC50 ([6]; genotype 1a H77 RLuc replicon): 0.001 to 0.999 nM
EC50 [7]: 0.001 to 0.999 nM

COC(=O)N[C@H](C(=O)N1[C@H](c2nc3ccc4cc5c(cc4c3[nH]2)OCc2cc(-c3cnc(C4CCCN4C(=O)[C@H](NC(=O)OC)c4ccccc4)[nH]3)ccc2-5)C[C@@H]2CCC[C@@H]21)C(C)C (stereo partly shown) [Example 574]
EC50 [1]: 0.001 to 0.999 nM
EC50 [2]: 0.001 to 0.999 nM
EC50 [3]: 0.001 to 0.99 nM
EC50 [4, 9]: 0.001 to 0.99 nM
EC50 [5, 10]: 0.001 to 0.999 nM
EC50 ([6]; genotype 1a H77 RLuc replicon): 0.001 to 0.999 nM
EC50 [7]: 0.001 to 0.999 nM

COC[C@H]1C[C@@H](c2nc3ccc4cc5c(cc4c3[nH]2)OCc2cc(-c3cnc([C@@H]4C[C@H](C)CN4C(=O)[C@H](NC(=O)OC)c4ccccc4)[nH]3)ccc2-5)N(C(=O)[C@@H](NC(=O)OC)C(C)C)C1 [Example 572]
EC50 [1]: 0.001 to 0.999 nM
EC50 [2]: 0.001 to 0.999 nM
EC50 [3]: 0.001 to 0.99 nM
EC50 [4, 9]: 0.001 to 0.99 nM
EC50 [5, 10]: 0.001 to 0.999 nM
EC50 ([6]; genotype 1a H77 RLuc replicon): 0.001 to 0.999 nM
EC50 [7]: 0.001 to 0.999 nM
